{"source": "patent US20240000811A1", "about": "“INOSITOL HEXAKISPHOSPHATE ANALOGUES FOR TREATMENT OF CALCIFICATION ASSOCIATED KIDNEY DISEASES” (INOSITEC AG, priority 2020, published 2024)", "key": {"[1]": {"test_system": "C57BL/6 male mice on high phosphate diet", "experiment": "Mouse model of high phosphate-induced kidney damage", "type": "in vivo", "details": "100 mg/kg s.c. 3 times/week", "procedure": "C57BL/6 male mice (12 weeks of age) were placed on either regular diet containing 0.35% inorganic phosphate or high phosphate diet containing 2.0% inorganic phosphate. These mice were subcutaneously injected with either (OEG2)2-IP4 (100 mg/kg) or vehicle (distilled water) three times a week and then sacrificed at 20 weeks of age to harvest their blood and kidneys. Some mice were transferred individually to metabolic cages to collect urine for 3 days before sacrifice. Serum FGF23 levels were measured using intact FGF23 ELISA (Kinos) according to the manufacturers' protocols. Serum and urine levels of phosphate were measured using Fuji Dri-Chem slides and the analyzer (Dri-Chem NX500V, Fuji, Tokyo, Japan). […] Quantitative RT-PCR reactions were performed using 20 ng of cDNA incubated with 410 nM of each primer and 6 μL of SYBR Green PCR Master mix (Toyoba, Osaka, Japan THUNDERBIRD SYBR qPCR Mix QPS-201) in a total volume of 12 μl. […] Relative mRNA levels were calculated by the comparative threshold cycle method using cyclophilin as an internal control. […] The collagen volume fraction (the ratio of the Sirius Red-positive area to the total area) was quantified using an image analysis software (IMAGE PRO 9.32, Medica Cybernetics, Rockville, MD, USA) as previously described (Hirano, Y. Kurosu et al., FEBS Open Bio. 10, 894-903. DOI:10.1002/2211-5463.1284, 2020). […]"}, "[2]": {"experiment": "In-solution screening: CaP precipitation and aggregation in artificial renal tubular fluid (RTF)", "details": "9 mM phosphate, 8 mM calcium, 4 h, RT", "procedure": "An artificial renal tubular fluid (RTF) with a final composition of 0.05 mM oxalate, 0.005 mM sulphate, 408 mM sodium, 424 mM chloride, 0.26 mM potassium, 4 mM magnesium and 0.2 mM citrate in double distilled water was prepared according to a literature report (Fasano, J. M. et al., Kidney Int. 59, 169-178. DOI: 10.1046/j.1523-1755.2001.00477.x, 2001). The solution was filtered with a 0.45-μm syringe filter. Twenty mM Bis-Tris buffer was added to the reported protocol to ensure pH stability throughout experiments and pH was set to 7.2. The artificial RTF was stored at room temperature for up to four months. Stock solutions of 0.25 M phosphate and 1 M calcium were prepared in double distilled water and were stored separately at −20° C.\nTwenty-x final concentration phosphate, 20× final concentration calcium and 10× final concentration compound dilutions were prepared in RTF. Assay mixture consisting of 80% RTF, 10% compound dilution, 5% phosphate dilution and 5% calcium dilution was prepared in Eppendorf tubes as follows. RTF (320 μL) was mixed with 20 μL phosphate dilution (final concentration of 9 mM), 40 μL compound dilution and 20 μL calcium dilution (final concentration of 8 mM). The assay mixture was vortexed after adding each component and 380 μL of the mixture were immediately added to 8-well glass bottom slides and incubated for 4 hat RT. CaP precipitation was assessed using a Leica DM 6000B microscope (Leica Microsystems, Wetzlar, Germany) in brightfield mode. For quantification 3 wells/condition with 3-4 images/well were imaged with a 40× objective. The total area covered with CaP deposits in percentage of the field of view and the mean size of CaP aggregates were determined.\nIn a first step, the influence of selected IP6 analogues (FIG. 3) on CaP precipitation and growth was assessed in vitro using artificial renal tubular fluid (RTF) (Table 1). In a previous study, the inventors investigated CaP protein particle formation in serum. However, an important difference to cardiovascular calcification lies in the extremely low protein content of the renal tubular fluid vs. the high abundance of proteins in blood, which can stabilize amorphous particles. Two cut-offs were chosen for assessing efficacy. First, complete inhibition was defined as a >90% reduction of detected CaP precipitates compared to the control sample without compound."}, "[3]": {"test_system": "RPTEC/TERT 1 human proximal tubule cells", "experiment": "CaP-induced CaOx crystallization on RPTEC monolayers", "type": "cell-based", "details": "1.2 mM oxalate, 4 h", "procedure": "For the assessment of CaP-induced CaOx crystallization, after 24 h of incubation, Ca/P spiked medium was removed, and cells were washed twice with PBS. Subsequently, medium containing 1.2 mM oxalate and compound was added to each well. After 4 h of incubation at 37° C. and 5% CO2 treatment was removed, and cells washed once with PBS before staining.\nFor staining, ProxUp basal medium was mixed with calcein (500 nM final concentration), EthD (6 μM final concentration), CellMask stain ([…]) and Hoechst 33342. Staining mixture was added to RPTEC and cells were incubated for 30 min in the dark at 37° C. and 5% CO2. Staining solution was removed, cells were washed with PBS once and ProxUp basal medium was added. Cells were immediately imaged after staining. Images were obtained by epifluorescence microscopy at 37° C., using a Leica CTR6000 microscope. For quantification 3 wells/condition were prepared and 3 images/well were taken. For preliminary adhesion experiments images were taken with a 10× objective, for the imaging assay 20× objective images were taken."}}}
{"molecule": "COCCOCCO[C@@H]1C(OP(=O)(O)O)[C@H](OCCOCCOC)[C@@H](OP(=O)(O)O)C(OP(=O)(O)O)[C@H]1OP(=O)(O)O", "note": "(some centres unmarked) [(OEG2)2-IP4]", "values": [{"measurement": "collagen volume fraction (fibrosis), Picro-Sirius red staining of the kidneys, vs vehicle", "setting": "[1]", "value": "reduced"}, {"measurement": "kidney damage and fibrosis markers (Spp1, IL36a, Ngal, MMP3, Col1a1 mRNA in kidney) vs vehicle control", "setting": "[1]", "value": "significantly reduced"}, {"measurement": "effect on CaP precipitation / crystallization (in words)", "setting": "[2]", "value": "did not further increase the inhibitory activity"}, {"measurement": "calcium oxalate dihydrate (COD) in CaP-induced CaOx crystallization", "setting": "[3]; 100 μM compound", "value": "almost entirely abolished"}, {"measurement": "CaOx crystal form in CaP-induced CaOx crystallization", "setting": "[3]; after 24 h Ca/P, dose-dependent", "value": "revert CaOx crystallization from calcium oxalate monohydrate (COM), the predominant most stable form, to calcium oxalate dihydrate (COD)"}]}
